{"source": "PubChem BioAssay AID449764", "about": "(Southern Research Specialized Biocontainment Screening …, 2010)", "data": [{"system": "Mycobacterium tuberculosis H37Rv growth inhibition, no glycerol", "assay": "Mycobacterium tuberculosis H37Rv growth inhibition, no glycerol, confirmatory dose response (AID 449764);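 also: growth read after 7 days of incubation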", "conditions": "measured here: IC90 growth inhibition", "units": {"IC90": "µM"}, "values": [{"smiles": "OCCCNc1cc(-c2ccnc(Nc3cccc(Cl)c3)n2)ccn1", "IC90": 96}, {"smiles": "O=C(OCC(=O)N1CCN(c2ccccc2)CC1)c1cnc(Cl)c(Cl)c1", "IC90": 58.1}, {"smiles": "CC(C)(C)C1CCc2sc(-c3nnc(CCl)o3)cc2C1", "note": "(configuration not stated)", "IC90": 19.5}, {"smiles": "Cc1c2c(nc3ccccc13)CCC(C)C2", "note": "(configuration not stated)", "IC90": 37.1}, {"smiles": "CC(C)(C)C1CCc2c(sc3nc(SCC(N)=O)nc(N)c23)C1", "note": "(configuration not stated)", "IC90": 33.5}, {"smiles": "COc1ccccc1N(C)S(=O)(=O)c1ccc(C(=O)Nc2ccc3nc(C)sc3c2)cc1", "IC90": 99.8}, {"smiles": "CC1=NNC(=O)/C1=C\\c1cn(-c2ccccc2)nc1-c1ccc(Cl)cc1", "IC90": 48.8}, {"smiles": "Cc1ccc(OC(=O)c2oc3ccc(F)cc3c2C)c(C)c1", "IC90": 13.9}, {"smiles": "C=C(CCC(=O)c1ccccc1)C(=O)c1ccccc1", "IC90": 25.1}, {"smiles": "COc1ccc(N/N=C(/N=Nc2nc(C)cc(=O)[nH]2)c2ccccc2)cc1", "IC90": 6.4}, {"smiles": "COc1ccc(C(=O)c2c(C(F)(F)F)oc3c2C(=O)c2ccccc2C3=O)cc1OC", "IC90": 22.1}, {"smiles": "CC(=O)n1cc(/C=C2/N=C(c3ccccc3)OC2=O)c2ccccc21", "IC90": "> 100"}, {"smiles": "COc1ccc(C2(c3ccc(OC)cc3)NC(=O)N(CC(=O)Nc3ccc(OC(F)F)cc3)C2=O)cc1", "IC90": 53.9}, {"smiles": "C=CCOc1ccc2c(c1)C(=NO)c1cc(OCC=C)ccc1-2", "IC90": "> 100"}, {"smiles": "CCOC(=O)CNC(=O)CNC(=O)c1nn(-c2ccc(OC)c(Cl)c2)c(=O)c2ccccc12", "IC90": "> 100"}, {"smiles": "COc1ccc(C(=O)OCC(=O)c2ccc(Br)s2)c(OC)c1", "IC90": "> 100"}, {"smiles": "COC(=O)c1[nH]c2cc(OC)ccc2c1NC(=O)CN1CCN(c2cccc(C)c2)C(C)C1", "note": "(configuration not stated)", "IC90": 50.9}, {"smiles": "Cc1cc(N/N=C2/CCCc3ccccc32)nc2ccccc12", "IC90": 45.6}, {"smiles": "Cc1cc(C(=O)COC(=O)C2=COCCO2)c(C)n1-c1cccc(F)c1", "IC90": "> 100"}, {"smiles": "CN(C)N=Nc1nc[nH]c1C(N)=O", "IC90": 8.38}, {"smiles": "O=C(COc1cccc(Oc2ccccc2)c1)Nc1ncccn1", "IC90": "> 100"}, {"smiles": "Cc1c(C(=O)N(C)C)sc2nc(-c3ccccn3)[nH]c(=O)c12", "IC90": 31.4}, {"smiles": "CCCOC(=O)c1ccc(-c2ccc(C=O)o2)cc1", "IC90": "> 100"}, {"smiles": "Cc1[nH]c2ccccc2c1C(=O)COC(=O)c1ccc([N+](=O)[O-])s1", "IC90": 3.24}, {"smiles": "O=C1c2ccccc2-c2onc3ccc(Oc4ccccc4)c1c23", "IC90": 14.4}, {"smiles": "COc1ccc(-c2csc3nc(-c4ccccc4OC)oc(=O)c23)cc1", "IC90": 22.1}, {"smiles": "Oc1ccc(CN2CCc3ccccc3C2)c2cccnc12", "IC90": "> 100"}, {"smiles": "CCOC1OC(=O)C(Cl)=C1Nc1ccccc1C", "note": "(configuration not stated)", "IC90": 7.24}, {"smiles": "C=CCN(CC=C)C(=S)NC(=O)c1ccc(-c2ccccc2)cc1", "IC90": 22.4}, {"smiles": "O=C(Nc1ccc2nsnc2c1)NC1CCCCC1", "IC90": "> 100"}, {"smiles": "Oc1ccccc1NCC(O)Cn1ccc2ccccc21", "note": "(configuration not stated)", "IC90": 12.3}, {"smiles": "O=c1c(C=Nc2ccc(Oc3ccccc3)cc2)c[nH]n1-c1cccc(Cl)n1", "IC90": "> 100"}, {"smiles": "O=C(NC(C(=O)N/N=C/c1cccc2ccccc12)c1n[nH]c(=O)c2ccccc12)c1ccccc1", "note": "(configuration not stated)", "IC90": "> 100"}, {"smiles": "O=C(CCN1C(=O)/C(=C/c2ccccc2)SC1=S)Nc1ccccn1", "IC90": "> 100"}, {"smiles": "CCCOc1ccc(N2CC(C(=O)Nc3ccccn3)CC2=O)cc1", "note": "(configuration not stated)", "IC90": "> 100"}, {"smiles": "Cc1ccccc1N1CCN(C(=O)c2ccc(Oc3ccc(C(F)(F)F)cn3)cc2)CC1", "IC90": 54.6}, {"smiles": "O=C(c1ccc(-c2ccccc2)c(F)c1)C1CCCN(C(=O)c2cncs2)C1", "note": "(configuration not stated)", "IC90": 49.4}, {"smiles": "C#CCOc1ccc2c(c1)c(C(C)=O)c(C)n2Cc1ccccc1", "IC90": "> 100"}, {"smiles": "Cc1ccc2nc(/C(C#N)=C/c3cn[nH]c3-c3ccc(F)cc3)[nH]c2c1", "IC90": 25.4}, {"smiles": "Cc1cc(/C=C2\\SC(=Nc3ccc(F)cc3)NC2=O)c(C)n1-c1ccc(S(N)(=O)=O)cc1", "IC90": 26.2}, {"smiles": "CCOc1ccc(NC(=O)CSc2nc(O)c(C)c(=O)n2-c2ccc(F)cc2)cc1", "IC90": 59.2}, {"smiles": "Cc1nn(-c2ccccc2)c(N)c1N=Nc1ccc(Cl)cc1", "IC90": "> 100"}, {"smiles": "CCN1CCN(Cc2ccc(NC(=O)c3ccc(C)c(/C=C/c4cnc(Nc5cc(N6CCNCC6)nc(C)n5)cn4)c3)cc2C(F)(F)F)CC1", "IC90": 89.8}, {"smiles": "Nc1nonc1C(=O)NCCNCc1c(OCc2ccccc2F)ccc2ccccc12", "IC90": 54.4}, {"smiles": "CCc1ccc2c(c1)/C(=C/C(=O)c1cccs1)C(=O)N2", "IC90": 4.12}, {"smiles": "Oc1ccccc1-c1nnc(COc2ccccc2)o1", "IC90": 28.9}, {"smiles": "CCOC(=O)c1cnc2ccc(OCC)cc2c1N1CCN(c2ccccc2)CC1", "IC90": 56.7}, {"smiles": "S=c1nc[nH]c2nc[nH]c12", "IC90": 5.19}, {"smiles": "CCN(CC)c1nc(NN)nc(Nc2ccc(C)c(Cl)c2)n1", "IC90": 6.79}, {"smiles": "CC1(C)Cc2c(C#N)c(N3CCN(C(=O)c4ccccc4)CC3)nc(Cc3ccccc3)c2CO1", "IC90": 46.9}, {"smiles": "CNc1nc(SCc2ccccc2Cl)nc2c1CCCC2", "IC90": 1.21}, {"smiles": "COc1ccc([C@H]2CC(=O)C=C(c3ccc4c5c(cccc35)CC4)C2)cc1", "IC90": "> 100"}, {"smiles": "O=C(CCl)NCCCCCCCCCNC(=O)CCl", "IC90": "> 100"}, {"smiles": "COc1ccc(Nc2nc(N3CCCCC3)nc3ccccc23)c(OC)c1", "IC90": 26}, {"smiles": "CN1C(=O)/C(=C/c2ccccc2Cl)Sc2ccc(C(=O)NCc3cccnc3)cc21", "IC90": 89.8}, {"smiles": "Cc1ccc(CN2CCN(/N=C/c3ccc(Cl)c([N+](=O)[O-])c3)CC2)cc1", "IC90": 55.3}, {"smiles": "O=c1c(Cl)c2oc3ccccc3nc-2c2ccccc12", "IC90": 17.9}, {"smiles": "C=CCc1c(C)nc(SC)nc1Nc1ccc(C(C)=O)cc1", "IC90": 52.4}, {"smiles": "CCOC(=O)N1CCC(n2c(SCC(=O)OCc3ccccc3)nc3ccsc3c2=O)CC1", "IC90": "> 100"}, {"smiles": "CCCSc1nn2c(=O)c3ccccc3nc2s1", "IC90": 28.1}, {"smiles": "C#CCOCCOCCOCCNc1nc(N2CCN(C(=O)C(Cc3ccc(O)cc3)n3cc(C(N)CC(C)C)nn3)CC2)nc(N2CCN(C(=O)C(Cc3cc4ccccc4[nH]3)n3cc(C(N)Cc4ccc(O)cc4)nn3)CC2)n1", "note": "(configuration not stated)", "IC90": 23.8}, {"smiles": "CC[C@@H](C)[C@H](CN[C@H](CNC)C(C)C)NC[C@@H](C)c1ccc(CC(C)C)cc1", "IC90": 15.4}, {"smiles": "Cc1cc(-c2n[nH]c(=S)n2/N=C/C(Br)=C/c2ccccc2)n[nH]1", "IC90": 8.35}, {"smiles": "O=C(CCc1c[nH]c2ccccc12)N1CCN(S(=O)(=O)c2ccccc2)CC1", "IC90": "> 100"}, {"smiles": "CCCn1c(=N)c(C(=O)NCc2ccc3c(c2)OCO3)cc2c(=O)n3cccc(C)c3nc21", "IC90": 29.1}, {"smiles": "O=C(NCC1CC1)c1cc([N+](=O)[O-])cc([N+](=O)[O-])c1", "IC90": 11.2}, {"smiles": "COc1cccc(NC(=O)C2CCN(Cc3cnn(-c4ccccc4)c3-n3cccc3)CC2)c1", "IC90": 90}, {"smiles": "CCCCOc1ccc(C(=O)Oc2ccc(C)nc2)cc1", "IC90": 78.8}, {"smiles": "Cc1cccc(/C=C/C(=O)c2ccc([N+](=O)[O-])o2)c1", "IC90": "< 0.2"}, {"smiles": "CC1CCCC(NC(=O)NC(=O)CCl)C1C", "note": "(configuration not stated)", "IC90": 14.3}, {"smiles": "Cc1ccc(S(=O)(=O)NC(CC(C)C)C(=O)N2CCN(C/C=C/c3ccccc3)CC2)cc1", "note": "(configuration not stated)", "IC90": 90.2}, {"smiles": "Clc1cc(Cl)cc(Nc2ncn[nH]2)c1", "IC90": "> 100"}, {"smiles": "Cc1c(Cl)ccc2c1NC(=O)[C@]21N[C@@H](Cc2ccccc2)[C@H]2C(=O)N(c3ccc(F)cc3)C(=O)[C@H]21", "IC90": 26.6}, {"smiles": "c1ccc(-c2cn3c(n2)CCc2ccc4cccnc4c2-3)cc1", "IC90": 25.4}, {"smiles": "CCNc1nc(NCC)nc(N/N=C/c2ccc([N+](=O)[O-])o2)n1", "IC90": 1.7}, {"smiles": "C#C[C@]1(O)CC[C@H]2[C@@H]3CCc4cc(OC5CCCC5)ccc4[C@H]3CC[C@@]21C", "IC90": 54.7}, {"smiles": "CC(C)(C)c1ccc(C(=O)NC(=S)NNC(=O)COc2ccccc2)cc1", "IC90": 42.9}, {"smiles": "COc1ccc(-c2csc(NC(C)c3nc4cc(Cl)c(N5CCCCC5)cc4n3CCCO)n2)cc1", "note": "(configuration not stated)", "IC90": 26.2}, {"smiles": "c1ccc(-n2cnc3cc(NCc4cccs4)ccc32)cc1", "IC90": "> 100"}, {"smiles": "COCc1nnc(NC(=O)C2CC(=O)N(c3ccc(C)c(Cl)c3)C2)s1", "note": "(configuration not stated)", "IC90": "> 100"}, {"smiles": "CCOC(=O)C1=C(C)NC(SCC(=O)Nc2nc(C)cs2)=C(C#N)C1c1cccs1", "note": "(configuration not stated)", "IC90": 49.8}, {"smiles": "CCCOc1ccc2c(c1)C(=NN=C(N)N)c1cc(OCCC)ccc1-2", "IC90": 18.1}, {"smiles": "c1ccc(CN2CCN(c3nc(NCc4ccco4)c4ccccc4n3)CC2)cc1", "IC90": 22.6}, {"smiles": "O=C(CN1CCN(c2ccccc2O)CC1)Nc1ccccc1C(=O)NCCc1ccccc1", "IC90": "> 100"}, {"smiles": "CCCCS(=O)(=O)/C=C\\C=C/S(=O)(=O)CCCC", "IC90": 2.92}, {"smiles": "Clc1ccc(C(Cn2ccnc2)OCc2csc3c(Cl)cccc23)c(Cl)c1", "note": "(configuration not stated)", "IC90": 23.9}, {"smiles": "Cc1cc(O)c2c(c1)C(=O)c1cc(O)cc(O)c1C2=O", "IC90": "> 100"}]}]}
